Laboratory results as given in US20050043300A1, “Piperazine derivatives” (priority 2003, published 2005).

Key:
[1] = biological target: interaction of gp120 with CD4 (Human immunodeficiency virus type 1 group M subtype B, UniProt P04578); experiment: gp120/soluble CD4 enzyme linked immunosorbent assay (ELISA); type: binding; conditions: soluble CD4 conjugated to horseradish peroxidase, absorbance at 492 nm, read-out: IC50, inhibition of interaction of gp120 with soluble CD4
Procedure: Maxisorp plates (Nunc) are coated with 2 μg/well of anti-gp120 antibody (D7324). 100 μl of gp120 (dilution pre-determined by titration) is added to each well and incubated for 90 minutes at room temperature. The sample is removed and the wells are washed with PBS (phosphate buffered saline)+0.01% TWEEN® (polyethylene glycol sorbitan monolaurate). 50 μl/well of compound is added followed by 50 μl (0.1 μg) of soluble CD4 conjugated to horseradish peroxidase (Autogen Bioclear). The plate is incubated for 90 minutes at room temperature before the wells are washed again. The substrate OPD (o-phenylenediamine, Sigma) is added at a concentration of 0.5 mg/ml and the plate incubated in the dark at room temperature for 3 minutes before 3M HCl is added to stop the reaction. Compounds that inhibit the interaction of gp120 with soluble CD4 will give rise to a reduced absorbance at 492 nm.

HIV-1 fusion = experiment: gp160 induced cell-cell fusion assay (HeLa P4 / CHO-Tat10 cells, β-galactosidase reporter); type: cell-based; conditions: Human immunodeficiency virus 1, HeLaP4, read-out: IC50 against HIV-1 fusion
Procedure: The gp160 induced cell-cell fusion assay uses a HeLa P4 cell line and a CHO-Tat10 cell line.
The HeLa P4 cell line expresses CCR5 and CD4 and has been transfected with HIV-1 LTR-β-Galactosidase. The media for this cell line is Dulbecco modified eagle's medium (D-MEM) (without L-glutamine) containing 10% foetal calf serum (FCS), 2 mM L-glutamine penicillin/streptomycin (Pen/Strep; 100 U/mL penicillin+[…] streptomycin), and 1 μg/ml puromycin.
The CHO cell line is a Tat (transcriptional trans activator)-expressing clone from a CHO JRR17.1 cell line that has been transfected with pTat puro plasmid. The media for this cell line is rich medium for mammalian cell culture originally developed at Roswell Park Memorial Institute RPMI1640 (without L-glutamine) containing 10% FCS, 2 mM L-glutamine, 0.5 mg/ml Hygromycin B and 12 μg/ml puromycin. The CHO JRR17.1 line expresses gp160 (JRFL) and is a clone that has been selected for its ability to fuse with a CCR5/CD4 expressing cell line.
Upon cell fusion, Tat present in the CHO cell is able to transactivate the HIV-1 long terminal repeat (LTR) present in the HeLa cell leading to the expression of the β-Galactosidase enzyme. This expression is then measured using a Fluor Ace™ β-Galactosidase reporter assay kit (Bio-Rad cat no. 170-3150). This kit is a quantitative fluorescent assay that determines the level of expression of β-galactosidase using 4-methylumbelliferul-galactopyranoside (MUG) as substrate. β-Galactosidase hydrolyses the fluorogenic substrate resulting in release of the fluorescent molecule 4-methylumbelliferone (4MU). Fluorescence of 4-methylumbelliferone is then measured on a fluorometer using an excitation wavelength of 360 nm and emission wavelength of 460 nm.
Compounds that inhibit fusion will give rise to a reduced signal and, following solubilisation in an appropriate solvent and dilution in culture medium, a dose-response curve for each compound can be used to calculate IC50 values.

Compound | IC50 [1] | IC50 (HIV-1 fusion)
C[C@H](Oc1cccc2ncccc12)C(=O)N1CCN(C(=O)c2ccccc2)C[C@H]1C [Example 1, (2S)-1-[(2R)-4-Benzoyl-2-methyl-piperazin-1-yl]-2-(quinolin-5-yloxy)-prooan-1-one] | 920 nM | 
CNC(=O)c1ccc(O[C@@H](C)C(=O)N2CCN(C(=O)c3ccccc3)C[C@H]2C)c(OC)c1 [Example 11] | 1000 nM | 
Cc1n[nH]c2cccc(O[C@@H](C)C(=O)N3CCN(C(=O)c4ccccc4)C[C@H]3C)c12 [Example 12] | 750 nM | 15 nM
CC(Oc1cccc2ccccc12)C(=O)N1CCN(C(=O)c2ccccc2)C[C@H]1C (stereo partly drawn) [Example 29] |  | 134 nM
CC(Oc1ccccc1C(N)=O)C(=O)N1CCN(C(=O)c2ccccc2)C[C@H]1C (stereo partly drawn) [Example 44] |  | 825 nM
